Patent publication US20260166182A1, “CYANINE-BASED FLUOROPHORES” (The General Hospital Corporation, priority 2022, published 2026)
“Also recorded” adds a separate entry of the source.

Columns and labels:
[1] = system: triple-negative breast adenocarcinoma (E0771 cell); assay: NIR-II fluorescence imaging of subcutaneous breast tumor-bearing C57BL/6 mice; format: in vivo, mouse; conditions: larger-sized breast tumors
Source text: (§1) General NIR-II fluorescence imaging: A 640×512-pixel InGaAs camera (Ninox640, Raptor Photonics) and macro zoom lens (0-10×; Navitar Zoom 7000 with SWIR coating) along with 900, 1070, 1100, and 1200 nm long-pass (LP) filters from either Thorlab or Edmund optics were used to collect the NIR-II signal. InGaAs camera played a role as an open-air imaging system along with the support of the FLARE system. An 808 nm fiber-coupled diode laser ([…] at the sample) was used as an excitation source. Data acquisition was done using in-house developed software. The mice fur on the region of interest was shaved prior to imaging using a clipper and removed completely using a depilatory cream. 100 μL of SH1 in 5 w/v % BSA saline ([…]) was injected through the tail vein. Mice were imaged with intact skin using InGaAs camera. At least 3 mice were analyzed for each sample. […]
(§2) Statistical analysis: The fluorescence and background intensities of a region of interest over each tissue were quantified using customized imaging software and ImageJ v1.48 (National Institutes of Health, Bethesda, MD). The signal-to-background ratio (SBR) was calculated as SBR=fluorescence/background, where background was the fluorescence intensity of muscle. […] The differences among groups were determined using one-way ANOVA analysis to assess the statistical differences among more than two groups. […]

[2] = system: LLC tumor; assay: Tumor histopathology with NIR fluorescence microscopy of resected LLC tumors; format: in vivo, mouse; conditions: histological NIR images
Description: Tumor histopathology evaluation: […] After rinsing with PBS, the fixed sections were counterstained with nuclear fast red, dehydrated by ethanol, transferred into xylene, and finally mounted according to the standard protocol. To determine the tissue distribution of the NIR fluorophore, the dissected tissues were embedded in Tissue-Tek optimum cutting temperature compound (Sakura Finetek, Torrance, CA) without a pre-fixation step. The tissue block was frozen at −80° C. Frozen sections were cut at a thickness of 10 or 50 μm by a cryostat (Leica, Germany). Then, the tissue sections were stained with hematoxylin and eosin (H&E). The BioTek Cytation 5 (Winooski, VT) was used for pathological fluorescence imaging and observation.

[3] = system: LLC tumor; assay: Quantitative 3D FLECT/CT tumor accumulation; format: in vivo, mouse; conditions: from 24 h to 48 h post-injection
Description: Quantitative analysis using InSyTe FLECT/CT: 3D fluorescence images were acquired with the TriFoil Imaging InSyTe FLECT/CT, a commercial preclinical imaging system with full 3D fluorescence tomography imaging capability and an inline CT system. Animals were anesthetized with isoflurane during scans. FLECT scans were performed with 116 projections per slice, 780 nm laser for excitation, and 853/45 bandpass fluorescence emission filter. After data collection, fluorescence images were reconstructed using a proprietary FLECT reconstruction engine. CT scans were performed with 360 projections per slice, 35 kV tube voltage, 950 uA tube current, and 100 ms exposure. CT images were reconstructed using the COBRA filtered back-projection algorithm (Exxim, Computing Corporation, Pleasanton, CA). Quantitative analysis of 3D fluorescence images was performed using the VivoQuant 2020 image analysis software (Invicro, Boston, MA). FLECT and CT images were co-registered in VivoQuant 2020. Volumes-of-interest (VOI) were segmented via intensity thresholding, where the threshold limits were set to the local full-width-half-maximum (FWHM) intensity value for the lower threshold bound and local maximum intensity value for the upper threshold bound.

[4] = In vivo biodistribution and pharmacokinetics in CD-1 mice; design: species or system mouse
Source text: In vivo biodistribution and pharmacokinetics of SH dyes: Animals were housed in an AAALAC-certified facility and were studied under the supervision of MGH IACUC in accordance with the approved institutional protocol. Six-week-old CD-1 mice (male; 25-30 g) were purchased from Charles River Laboratories (Wilmington, MA). Mice were maintained under anesthesia with isoflurane and oxygen during the preparation prior to injection. The end of the tail was cut for blood collection. Before injection, blood was sampled in capillary tubes (Fisher Scientific, Pittsburgh, PA) as a reference. […] Mice were imaged using the in-house built NIR-II imaging system. After 24 h post-injection, mice were sacrificed to image organs. At least 3 mice were analyzed for each sample. Results were presented as an exponential decay curve using Prism software version 9.0.2 (GraphPad, San Diego, CA).

[5] = system: orthotopic lung cancer (LLC cell); assay: Orthotopic lung tumor targeting; format: in vivo, mouse; conditions: 50 nmol, 48 h prior to imaging
Source text: as §1, §2

[6] = In vivo biodistribution study of NIR fluorophores in CD-1 mice; design: species or system mouse; conditions: 25 nmol intravenous, 4 h post-injection; listed as 18
Description: In Vivo Biodistribution Study of NIR Fluorophores: Under the supervision of the MGH IACUC, animals were housed in an AAALAC-certified facility and studied according to institutional protocol #2016N000136. In preparation for injection, CD-1 mice (25-30 g, 6 weeks, Charles River Laboratories, Wilmington, MA) were anesthetized with isoflurane and oxygen. A 10 mM stock solution of NIR fluorophores was prepared in DMSO, and 25 nmol of each molecule was diluted in BSA-containing saline (5 wt/v %) for intraoperative imaging. After 4 h post-injection, mice were imaged. For each experiment, camera exposure time and image normalization were held constant.
Quantitative Analysis: The fluorescence and background intensity of a region of interest (ROI) over each tissue was quantified using ImageJ software (NIH, Bethesda, MD) version 1.45q. The signal-to-background ratio (SBR) was calculated as SBR=fluorescence/background, where background is the signal intensity of neighboring tissues such as muscle. All NIR fluorescence images for a particular fluorophore were normalized identically for all conditions of an experiment.

Question: Which results are given for `CCCCN1/C(=C/C=C2\CCCC(/C=C/C3=[N+](CCCC)c4ccc(Cl)cc4C3(C)C)=C2Cl)C(C)(C)c2cc(Cl)ccc21` [SH1, 1-butyl-2-((E)-2-((E)-3-(2-((E)-1-butyl-5-chloro-3,3-dimethylindolin-2-ylidene)ethylidene)-2-chlorocyclohex-1-en-1-yl)vinyl)-5-chloro-3,3-dimethyl-3H-indol-1-ium]?
Answer: TBR [1]: 17.6; fluorescence signal location in resected tumor [2]: strong fluorescence signals in the targeted tumor; increase of % ID in cancer area [3]: more than 2 fold; pharmacokinetic model ([4]; 1 μmol/kg intravenous): one-compartment model; time to complete distribution ([4]; 1 μmol/kg intravenous): ≤ 24 h; organ distribution ([4]; 24 h post-injection): major distribution in the liver and spleen; half-life ([4]; male, CD-1, mouse, whole blood, 1 umol/kg, 1 μmol/kg intravenous, read-out: elimination blood half-life t½ (converted)): 5.39 ± 1.53 h; TBR against normal tissue [5]: 47.3; TBR against the lung [5]: 3.12; tissue/organ signals [6]: high signals in the primary and secondary lymphoid tissues; also recorded: higher signals in the bone marrow, spleen, and lymph nodes
